According to publication PMC5218480 (PLoS ONE, 2017):

System: MV-4-11 cells
Assay: Gene expression microarray analysis (Affymetrix PrimeView) and GSEA
Assay type: cell-based, human
Design: RFU PODN (11730768_x_at) / Fold change /veh PODN (11730768_x_at) / RFU LINC00158 (11744669_a_at) / Fold change /veh LINC00158 (11744669_a_at) / RFU DUSP10 (11751237_a_at) / Fold change /veh DUSP10 (11751237_a_at) / RFU ID3 (11757404_x_at) / Fold change /veh ID3 (11757404_x_at) / RFU PLEKHG5 (11737974_s_at) / Fold change /veh PLEKHG5 (11737974_s_at) / RFU LRRC4B (11730491_at) / Fold change /veh LRRC4B (11730491_at) / RFU GIMAP4 (11747438_a_at) / Fold change /veh GIMAP4 (11747438_a_at) / RFU KRT8 (11758183_x_at) / Fold change /veh KRT8 (11758183_x_at) / RFU CNN1 (11734310_a_at) / Fold change /veh CNN1 (11734310_a_at) / RFU VPS37D (11726825_at) / Fold change /veh VPS37D (11726825_at) / RFU C10orf10 (11716522_x_at) / Fold change /veh C10orf10 (11716522_x_at) / RFU KIR2DL2 /// KIR2DL4 /// KIR2DL5A /// KIR2DL5B /// KIR2DS1 /// KIR2DS2 /// KIR2DS3 /// KIR2DS4 /// KIR3DL3 /// KIR3DL3 /// KIR3DS1 (11738374_at) / Fold change /veh KIR2DL2 /// KIR2DL4 /// KIR2DL5A /// KIR2DL5B /// KIR2DS1 /// KIR2DS2 /// KIR2DS3 /// KIR2DS4 /// KIR3DL3 /// KIR3DL3 /// KIR3DS1 (11738374_at) / RFU C1QL1 (11718748_at) / Fold change /veh C1QL1 (11718748_at) / RFU TMPRSS4 (11747572_a_at) / Fold change /veh TMPRSS4 (11747572_a_at) / RFU HAMP (11756126_x_at) / Fold change /veh HAMP (11756126_x_at) / RFU RNFT2 (11725882_a_at) / Fold change /veh RNFT2 (11725882_a_at) / RFU NR4A2 (11747474_a_at) / Fold change /veh NR4A2 (11747474_a_at) / RFU ABCC12 (11746883_a_at) / Fold change /veh ABCC12 (11746883_a_at) / RFU TMEM136 (11760407_x_at) / Fold change /veh TMEM136 (11760407_x_at) / RFU CLDN22 /// WWC2 (11732394_at) / Fold change /veh CLDN22 /// WWC2 (11732394_at) / RFU HLA-DPB1 (11760878_x_at) / Fold change /veh HLA-DPB1 (11760878_x_at) / RFU SPINT1 (11716480_a_at) / Fold change /veh SPINT1 (11716480_a_at) / RFU GAP43 (11754022_s_at) / Fold change /veh GAP43 (11754022_s_at) / RFU A4GNT (11735810_at) / Fold change /veh A4GNT (11735810_at) / RFU PRB3 (11715151_x_at) / Fold change /veh PRB3 (11715151_x_at) / RFU TUBB4B (11761932_at) / Fold change /veh TUBB4B (11761932_at) / RFU CAPN14 (11732068_a_at) / Fold change /veh CAPN14 (11732068_a_at) / RFU TMCC2 (11721928_a_at) / Fold change /veh TMCC2 (11721928_a_at) / RFU IRGQ (11745062_a_at) / Fold change /veh IRGQ (11745062_a_at) / RFU FAM174B (11720279_a_at) / Fold change /veh FAM174B (11720279_a_at) / RFU TMPRSS4 (11748680_a_at) / Fold change /veh TMPRSS4 (11748680_a_at) / RFU FAM212B (11763350_a_at) / Fold change /veh FAM212B (11763350_a_at) / RFU PLEKHG5 (11743358_a_at) / Fold change /veh PLEKHG5 (11743358_a_at) / RFU ZSCAN30 (11745921_a_at) / Fold change /veh ZSCAN30 (11745921_a_at) / RFU CMKLR1 (11741424_a_at) / Fold change /veh CMKLR1 (11741424_a_at) / RFU LOC101060620 /// MAPK8IP1 (11723275_at) / Fold change /veh LOC101060620 /// MAPK8IP1 (11723275_at) / RFU SPTSSB (11747773_x_at) / Fold change /veh SPTSSB (11747773_x_at) / RFU PRSS12 (11739890_at) / Fold change /veh PRSS12 (11739890_at) / RFU BIN1 (11741810_x_at) / Fold change /veh BIN1 (11741810_x_at) / RFU WNT11 (11732464_a_at) / Fold change /veh WNT11 (11732464_a_at) / RFU C10orf10 (11716521_a_at) / Fold change /veh C10orf10 (11716521_a_at) / RFU C5orf56 (11738089_at) / Fold change /veh C5orf56 (11738089_at) / RFU CYB561 (11721691_x_at) / Fold change /veh CYB561 (11721691_x_at) / RFU ANKRD19P (11752326_a_at) / Fold change /veh ANKRD19P (11752326_a_at) / RFU OR2T12 /// OR2T33 /// OR2T8 (11738714_s_at) / Fold change /veh OR2T12 /// OR2T33 /// OR2T8 (11738714_s_at) / RFU VCAN (11748164_a_at) / Fold change /veh VCAN (11748164_a_at) / RFU JSRP1 (11732532_at) / Fold change /veh JSRP1 (11732532_at) / RFU KRTAP10-11 (11738290_x_at) / Fold change /veh KRTAP10-11 (11738290_x_at) / RFU MYO3A (11730013_a_at) / Fold change /veh MYO3A (11730013_a_at) / RFU EBF3 (11725865_a_at) / Fold change /veh EBF3 (11725865_a_at) / RFU CAMK2N1 (11719241_x_at) / Fold change /veh CAMK2N1 (11719241_x_at) / RFU C5orf56 (11738088_a_at) / Fold change /veh C5orf56 (11738088_a_at) / RFU OLFML3 (11715873_a_at) / Fold change /veh OLFML3 (11715873_a_at) / RFU LOC100653217 /// NTM (11731650_a_at) / Fold change /veh LOC100653217 /// NTM (11731650_a_at) / RFU MAPK11 (11762145_a_at) / Fold change /veh MAPK11 (11762145_a_at) / RFU FIZ1 (11724087_x_at) / Fold change /veh FIZ1 (11724087_x_at) / RFU OASL (11726364_x_at) / Fold change /veh OASL (11726364_x_at) / RFU SOX15 (11748057_x_at) / Fold change /veh SOX15 (11748057_x_at) / RFU CD79A (11719716_a_at) / Fold change /veh CD79A (11719716_a_at) / RFU HIST1H1D (11736915_at) / Fold change /veh HIST1H1D (11736915_at) / RFU CASKIN2 (11723855_a_at) / Fold change /veh CASKIN2 (11723855_a_at) / RFU LOC730098 (11760151_x_at) / Fold change /veh LOC730098 (11760151_x_at) / RFU OR4N2 (11742367_at) / Fold change /veh OR4N2 (11742367_at) / RFU PRRT2 (11749266_a_at) / Fold change /veh PRRT2 (11749266_a_at) / RFU SNX32 (11753110_a_at) / Fold change /veh SNX32 (11753110_a_at) / RFU CDHR5 (11726645_a_at) / Fold change /veh CDHR5 (11726645_a_at) / RFU RCAN1 (11760418_a_at) / Fold change /veh RCAN1 (11760418_a_at) / RFU FAM167A (11723789_a_at) / Fold change /veh FAM167A (11723789_a_at) / RFU FAM26E (11764081_at) / Fold change /veh FAM26E (11764081_at) / RFU ISYNA1 (11749810_s_at) / Fold change /veh ISYNA1 (11749810_s_at) / RFU ACY1 (11761880_at) / Fold change /veh ACY1 (11761880_at) / RFU 11764098_at / Fold change /veh 11764098_at / RFU SAMD14 (11745864_x_at) / Fold change /veh SAMD14 (11745864_x_at) / RFU NPB (11741838_a_at) / Fold change /veh NPB (11741838_a_at) / RFU TMPRSS6 (11731388_a_at) / Fold change /veh TMPRSS6 (11731388_a_at) / RFU KRTAP10-2 (11738614_at) / Fold change /veh KRTAP10-2 (11738614_at) / RFU ARHGAP8 /// PRR5-ARHGAP8 (11727945_x_at) / Fold change /veh ARHGAP8 /// PRR5-ARHGAP8 (11727945_x_at) / RFU KRTAP5-7 /// NADSYN1 (11734609_at) / Fold change /veh KRTAP5-7 /// NADSYN1 (11734609_at) / RFU RASL12 (11751679_a_at) / Fold change /veh RASL12 (11751679_a_at) / RFU CDKN2B (11736163_a_at) / Fold change /veh CDKN2B (11736163_a_at) / RFU PRF1 (11729649_at) / Fold change /veh PRF1 (11729649_at) / RFU, ZNF638 /// ZNF638-IT1 / Fold change vs veh, ZNF638 /// ZNF638-IT1 / RFU, PANK3 / Fold change vs veh, PANK3 / RFU, SH3YL1 / Fold change vs veh, SH3YL1 / RFU, ZEB2 / Fold change vs veh, ZEB2 / RFU, NRIP1 / Fold change vs veh, NRIP1 / RFU, PTTG1IP / Fold change vs veh, PTTG1IP / RFU, CAPN2 / Fold change vs veh, CAPN2 / RFU, MED14 / Fold change vs veh, MED14 / RFU, SNORA58 / Fold change vs veh, SNORA58 / RFU, C1orf63 / Fold change vs veh, C1orf63 / RFU, LRRFIP1 / Fold change vs veh, LRRFIP1 / RFU, NDUFAF7 / Fold change vs veh, NDUFAF7 / RFU, SLC12A2 / Fold change vs veh, SLC12A2 / RFU, IBTK / Fold change vs veh, IBTK / RFU, ESF1 / Fold change vs veh, ESF1 / Fold change vs veh, TMEM50B / RFU, TAOK1 / Fold change vs veh, TAOK1 / RFU, ACBD3 / Fold change vs veh, ACBD3 / RFU, TMA16 / Fold change vs veh, TMA16 / RFU, RWDD3 / Fold change vs veh, RWDD3 / RFU, BCAT1 / Fold change vs veh, BCAT1 / RFU, EDEM3 / Fold change vs veh, EDEM3 / RFU, TMEM33 / Fold change vs veh, TMEM33 / RFU, WDR75 / Fold change vs veh, WDR75 / RFU, AHCTF1 / Fold change vs veh, AHCTF1 / RFU, TFRC / Fold change vs veh, TFRC / RFU, ZDHHC17 / Fold change vs veh, ZDHHC17 / RFU, NOM1 / Fold change vs veh, NOM1 / RFU, ARL8B / Fold change vs veh, ARL8B / RFU, ZBTB11 / Fold change vs veh, ZBTB11 / RFU, TAMM41 / Fold change vs veh, TAMM41 / RFU, KIAA1704 /// LOC100996395 / Fold change vs veh, KIAA1704 /// LOC100996395 / RFU, ING1 / Fold change vs veh, ING1 / RFU, TRMT61B / Fold change vs veh, TRMT61B / RFU, FUBP3 / Fold change vs veh, FUBP3 / RFU, TP53 / Fold change vs veh, TP53 / RFU, TNKS2 / Fold change vs veh, TNKS2 / RFU, ZFP14 / Fold change vs veh, ZFP14 / RFU, ACTR2 / Fold change vs veh, ACTR2 / RFU, PPP3R1 / Fold change vs veh, PPP3R1 / RFU, PIK3R1 / Fold change vs veh, PIK3R1 / RFU, HNRNPA1 / Fold change vs veh, HNRNPA1 / RFU, RNF170 / Fold change vs veh, RNF170 / RFU, ZNF28 / Fold change vs veh, ZNF28 / RFU, RNGTT / Fold change vs veh, RNGTT / RFU, OGT / Fold change vs veh, OGT / RFU, BRD1 / Fold change vs veh, BRD1 / RFU, MARS / Fold change vs veh, MARS / RFU, ZNF655 / Fold change vs veh, ZNF655 / RFU, FAHD1 / Fold change vs veh, FAHD1 / RFU, BDP1 / Fold change vs veh, BDP1 / RFU, LRRCC1 / Fold change vs veh, LRRCC1 / RFU, ARID1A / Fold change vs veh, ARID1A / RFU, ZNF146 / Fold change vs veh, ZNF146 / RFU, ZNF330 / Fold change vs veh, ZNF330 / RFU, GPN3 / Fold change vs veh, GPN3 / RFU, C9orf123 / Fold change vs veh, C9orf123 / RFU, N4BP2L2 / Fold change vs veh, N4BP2L2 / RFU, ARFIP1 / Fold change vs veh, ARFIP1 / RFU, FAM179B / Fold change vs veh, FAM179B / RFU, BCL10 / Fold change vs veh, BCL10 / RFU, UHRF1BP1L / Fold change vs veh, UHRF1BP1L / RFU, BET1 / Fold change vs veh, BET1 / RFU, CNOT2 / Fold change vs veh, CNOT2 / RFU, ZNF268 / Fold change vs veh, ZNF268 / Fold change vs veh, ZNF507 / RFU, DGCR2 / Fold change vs veh, DGCR2 / RFU, WDSUB1 / Fold change vs veh, WDSUB1 / Fold change vs veh, HSP90B1 /// MIR3652 / RFU, ADSS / Fold change vs veh, ADSS / RFU, GK / Fold change vs veh, GK / RFU, ZNF148 / Fold change vs veh, ZNF148 / RFU, TAF9 / Fold change vs veh, TAF9 / RFU, SLC1A5 / Fold change vs veh, SLC1A5 / RFU, SLMO2 / Fold change vs veh, SLMO2 / RFU, ABCC4 / Fold change vs veh, ABCC4 / RFU, LOC101060439 /// RAP1B / Fold change vs veh, LOC101060439 /// RAP1B / RFU, RFX7 / Fold change vs veh, RFX7 / RFU, GTPBP10 / Fold change vs veh, GTPBP10 / RFU, CNEP1R1 / Fold change vs veh, CNEP1R1 / RFU, BIVM-ERCC5 /// ERCC5 / Fold change vs veh, BIVM-ERCC5 /// ERCC5 / RFU, ILF3 / Fold change vs veh, ILF3 / RFU 11762660_at / Fold change /veh 11762660_at / RFU VCAN (11757783_s_at) / Fold change /veh VCAN (11757783_s_at) / RFU DDX43 (11728927_at) / Fold change /veh DDX43 (11728927_at) / RFU KRT8 (11758188_x_at) / Fold change /veh KRT8 (11758188_x_at) / RFU NKD1 (11759106_at) / Fold change /veh NKD1 (11759106_at) / RFU SRD5A1 (11742802_a_at) / Fold change /veh SRD5A1 (11742802_a_at) / RFU TPSAB1 /// TPSB2 (11721975_s_at) / Fold change /veh TPSAB1 /// TPSB2 (11721975_s_at) / RFU GSTM3 (11746129_a_at) / Fold change /veh GSTM3 (11746129_a_at) / RFU IL23R (11737362_x_at) / Fold change /veh IL23R (11737362_x_at) / RFU TMEM51 (11727254_a_at) / Fold change /veh TMEM51 (11727254_a_at) / RFU PIWIL2 (11732686_x_at) / Fold change /veh PIWIL2 (11732686_x_at) / RFU ORM1 (11744905_x_at) / Fold change /veh ORM1 (11744905_x_at) / RFU CCDC152 (11743942_at) / Fold change /veh CCDC152 (11743942_at) / RFU ECM1 (11717891_a_at) / Fold change /veh ECM1 (11717891_a_at) / RFU IL23R (11748794_a_at) / Fold change /veh IL23R (11748794_a_at) / RFU TNFAIP8L3 (11732012_x_at) / Fold change /veh TNFAIP8L3 (11732012_x_at) / RFU MBOAT4 (11741988_at) / Fold change /veh MBOAT4 (11741988_at) / RFU 11764193_at / Fold change /veh 11764193_at / RFU TMEM53 (11763286_at) / Fold change /veh TMEM53 (11763286_at) / RFU MAGEB2 (11727129_at) / Fold change /veh MAGEB2 (11727129_at) / RFU TMEM200A (11744735_a_at) / Fold change /veh TMEM200A (11744735_a_at) / RFU CCDC152 (11751479_a_at) / Fold change /veh CCDC152 (11751479_a_at) / RFU FAM211A (11726209_a_at) / Fold change /veh FAM211A (11726209_a_at) / RFU RGS16 (11746705_a_at) / Fold change /veh RGS16 (11746705_a_at) / RFU VCAN (11755009_s_at) / Fold change /veh VCAN (11755009_s_at) / RFU RHOB (11743442_s_at) / Fold change /veh RHOB (11743442_s_at) / RFU RGS16 (11720943_a_at) / Fold change /veh RGS16 (11720943_a_at) / RFU RGS16 (11720944_at) / Fold change /veh RGS16 (11720944_at) / RFU, VPS4B / Fold change vs veh, VPS4B / RFU, CREB1 / Fold change vs veh, CREB1 / RFU, DNAJC13 / Fold change vs veh, DNAJC13 / RFU, GNAQ / Fold change vs veh, GNAQ / RFU, CDK5R1 / Fold change vs veh, CDK5R1 / RFU, ZRANB3 / Fold change vs veh, ZRANB3 / RFU, CUL4A / Fold change vs veh, CUL4A / RFU, CCNY / Fold change vs veh, CCNY / RFU, UFL1 / Fold change vs veh, UFL1 / RFU, COG3 / Fold change vs veh, COG3 / RFU, DIAPH2 / Fold change vs veh, DIAPH2 / RFU, SKA2 / Fold change vs veh, SKA2 / RFU, AFF3 / Fold change vs veh, AFF3 / RFU, LMF1 / Fold change vs veh, LMF1 / RFU, IPO11 / Fold change vs veh, IPO11 / RFU, DFFB / Fold change vs veh, DFFB / RFU, FOXP1 / Fold change vs veh, FOXP1 / RFU, CARD8 / Fold change vs veh, CARD8 / RFU, STRN3 / Fold change vs veh, STRN3 / RFU, ADK / Fold change vs veh, ADK / RFU, RASSF2 / Fold change vs veh, RASSF2 / RFU, WIPF1 / Fold change vs veh, WIPF1 / RFU, LARP1B / Fold change vs veh, LARP1B / RFU, RASA1 / Fold change vs veh, RASA1 / RFU, RB1 / Fold change vs veh, RB1 / RFU, PPFIA1 / Fold change vs veh, PPFIA1 / RFU, MAT2A / Fold change vs veh, MAT2A / RFU, CCT5 / Fold change vs veh, CCT5 / RFU, WDR92 / Fold change vs veh, WDR92 / RFU, CUX1 / Fold change vs veh, CUX1 / RFU, TTC7A / Fold change vs veh, TTC7A / RFU, TMEM135 / Fold change vs veh, TMEM135 / RFU, DEPTOR / Fold change vs veh, DEPTOR / RFU, CPM / Fold change vs veh, CPM / RFU, DNAJB6 / Fold change vs veh, DNAJB6 / RFU, CACNA2D3 / Fold change vs veh, CACNA2D3 / RFU, DTX4 / Fold change vs veh, DTX4 / RFU, TFCP2 / Fold change vs veh, TFCP2 / RFU, GMCL1 /// GMCL1P1 / Fold change vs veh, GMCL1 /// GMCL1P1 / RFU, AEBP2 / Fold change vs veh, AEBP2 / RFU, SNHG1 /// SNORD22 /// SNORD25 /// SNORD26 /// SNORD27 /// SNORD28 /// SNORD29 /// SNORD31 / Fold change vs veh, SNHG1 /// SNORD22 /// SNORD25 /// SNORD26 /// SNORD27 /// SNORD28 /// SNORD29 /// SNORD31 / Fold change (Aza/veh), C12orf56 (ProbeSet 11735607_a_at) / Fold change (ACY-1035/veh), C12orf56 (ProbeSet 11735607_a_at) / Fold change (Aza/veh), FGFR1OP (ProbeSet 11751329_s_at) / Fold change (ACY-1035/veh), FGFR1OP (ProbeSet 11751329_s_at) / Fold change (Aza/veh), VPS36 (ProbeSet 11739960_a_at) / Fold change (ACY-1035/veh), VPS36 (ProbeSet 11739960_a_at) / RFU SYPL1 (11715823_x_at) / Fold change /veh SYPL1 (11715823_x_at) / RFU IGFBP7 (11715501_s_at) / Fold change /veh IGFBP7 (11715501_s_at) / RFU REEP3 (11722064_at) / Fold change /veh REEP3 (11722064_at) / RFU IGLL1 (11728026_x_at) / Fold change /veh IGLL1 (11728026_x_at): dose or concentration left out as unconfirmed
Conditions: ProbeSet 11727958_a_at; LIST B

Compound: Nc1ncn([C@@H]2O[C@H](CO)[C@@H](O)[C@H]2O)c(=O)n1 [azacitidine]
- RFU, ING1: 72.09 RFU
